According to paper PMC12055641, “The Study of Antistaphylococcal Potential of Omiganan and Retro-Omiganan Under Flow Conditions” (Probiotics and Antimicrobial Proteins, 2024):
No end group written: not given here.

What was measured:
[1] = test system: cells; parameters: method as in PMID 11294848; details: low concentrations; cited from earlier work
[2] = test system: human keratinocytes (HaCaT); format: cell-based; details: 24 h
Description: To evaluate the cytotoxicity of the peptides (IC50), the classic MTT assay on 96-well plates was performed for human keratinocytes (HaCaT) which were acquired from the ATCC. The assay utilizes colorimetric determination of the cell metabolic activity, and the color intensity reflects the number of live cells that can be measured spectrophotometrically. […] DMSO was added to the control cells at a final concentration of 1.0% (v/v), which was related to the maximum concentration of the solvent compounds used in the experiment. After 24 h of incubation at 37 °C (humidified 5% CO2 incubator) with the peptides, a medium containing 1 mg/mL of MTT was added to the wells up to a final concentration of 0.5 mg/mL. Subsequently, the plates were incubated at 37 °C for 4 h. Then, the medium was aspirated, and the formazan product was solubilized with DMSO. The background absorbance at 630 nm was subtracted from that at 570 nm for each well (Epoch, BioTek Instruments, USA). Six replicates were conducted for each concentration. All experiments were repeated at least twice and the resulting IC50 values were calculated with GraFit 7 software (v. 7.0, Erithacus, Berkley, CA, USA).

[3] = test system: S. aureus clinical strain 051N (MRSA); details: 24 h
From the text: (§1) Clinical S. aureus strains were collected from patients with atopic dermatitis during their visits to the Outpatient Clinic and hospitalization in the Department of Dermatology, Venereology and Allergology at Medical University of Gdańsk (following the approval from the ethics committee, Approval Number NKBBN/242–477/2014). Reference strains of S. aureus ATCC 25923, S. aureus ATCC 33591, S. aureus ATCC 9144, and S. aureus ATCC 12598 were obtained from the American Type Culture Collection. All the strains were stored at − 80 °C in Roti®-Store cryo vials (Carl Roth GmbH, Karlsruhe, Germany) and before the tests were transferred into fresh Mueller–Hinton Medium (BioMaxima, Lublin, Poland) and incubated for 24 h at 37 °C. Subsequently, each bacterial inoculum was seeded on Mueller–Hinton agar plates (BioMaxima) and incubated again for 24 h. The cultures prepared in this way were used in further antimicrobial assays. Minimum inhibitory concentrations (MICs) were determined according to the Clinical and Laboratory Standards Institute recommendations. […] The experiments were conducted on 96-well microtiter plates, with a final volume of 100 μL. Additionally, in the case of daptomycin, the medium was supplemented with Ca^2+ (50 mg/L). Cell densities were adjusted spectrophotometrically (Multiskan™ GO Microplate Spectrophotometer, Thermo Scientific) at 600 nm. The MICs were taken as the lowest drug concentration at which a visible growth of the microorganisms was inhibited. Minimum biofilm eliminating concentrations (MBECs) were determined on 96-well flat-bottomed microtiter polystyrene plates with resazurin (7-hydroxy-3H-phenoxazin-3-one 10-oxide sodium salt) as a cell viability reagent. To do this, the plates were filled with 100 μL of the initial inoculums of bacteria (0.5 × 10^7 CFU/mL) in the Mueller–Hinton broth and incubated for 24 h at 37 °C. […] After 24 h of incubation, 20 μL of resazurin (4 mg/mL) was added to each well and the MBEC values were read. Minimum biofilm inhibitory concentrations (MBICs) were also determined on 96-well flat-bottomed microtiter polystyrene plates as described previously. To do this, 50 μL of the compounds in the concentration range, diluted MHB, were prepared. Subsequently, the 50 μL of the staphylococcal inoculums were added to reach the same density of bacteria as that in the MBEC assay. After 24 h of incubation at 37 °C, the wells were rinsed three times with PBS and the fresh medium (100 μL) with resazurin (0.6 mg/mL) was added. Then, after 1 h of incubation, MBICs were read. […] All experiments were conducted in triplicate.

[4] = test system: S. aureus clinical strain 043SC (MRSA) biofilm; details: clinical strain 043SC biofilm, 24 h
From the text: as §1

[5] = test system: S. aureus ATCC 33591 (MRSA); details: ATCC 33591, 24 h
From the text: as §1

[6] = test system: S. aureus clinical strain 051N (MRSA) biofilm; details: clinical strain 051N biofilm, 24 h
From the text: as §1

[7] = test system: biofilm of reference and clinical strains of staphylococci (S. aureus); details: 24 h
From the text: as §1

[8] = test system: S. aureus ATCC 33591 (MRSA) biofilm; details: ATCC 33591, 24 h
From the text: as §1

[9] = test system: S. aureus clinical strain 015N (MRSA); details: 24 h
From the text: as §1

[10] = test system: S. aureus clinical strain 015N (MRSA) biofilm; details: clinical strain 015N biofilm, 24 h
From the text: as §1

[11] = test system: reference and clinical strains of staphylococci (S. aureus); details: 24 h
From the text: as §1

[12] = test system: S. aureus clinical strain 004N (MRSA) biofilm; details: clinical strain 004N biofilm, 24 h
From the text: as §1

[13] = test system: S. aureus clinical strain 043SC (MRSA); details: 24 h
From the text: as §1

[14] = test system: S. aureus clinical strain 004N (MRSA); details: 24 h
From the text: as §1

[15] = Hemolysis assay; format: cell-based; details: human, human red blood cells (RBCs), 64 μg/mL (lowest concentration causing hemolysis > 10%); read-out: degree of hemolysis
Description: The hemolysis assay was conducted using a procedure described previously. […] The control wells for 0% hemolysis and 100% hemolysis consisted of RBCs suspended in PBS and 1% of Triton X-100, respectively. […] After centrifugation, the supernatant was carefully […] to new microtiter plates and the release of hemoglobin was monitored by absorbance readings at 540 nm (MultiskanTM GO Microplate Spectrophotometer, Thermo Scientific). All experiments were conducted in triplicate. Blood collection was approved by Medical University of Gdańsk ethics committee (Consent Number: NKBBN/264/2019).

Substance | cells with membrane depolarization [1] | IC50 [2] [µg/mL] | MIC [3] [µg/mL] | MBEC [4] [µg/mL] | MBIC [4] [µg/mL] | MIC [5] [µg/mL] | MBEC [6] [µg/mL] | MBIC [6] [µg/mL] | mean MBEC (initial values) [7] [µg/mL] | MBEC [8] [µg/mL] | MBIC [8] [µg/mL] | MIC [9] [µg/mL] | MBEC [10] [µg/mL] | MBIC [10] [µg/mL] | mean MIC (initial values) [11] [µg/mL] | MBEC [12] [µg/mL] | MBIC [12] [µg/mL] | MIC [13] [µg/mL] | MIC [14] [µg/mL] | hemolysis at 60 min, 64 μg/mL [15] [%]
indolicidin: antimicrobial peptide derived from bovine neutrophil granules (ILPWKWPWWPWRR; ends and bridges not checked; UniProt P33046 131-143, looked up) | up to 75% |  |  |  |  |  |  |  |  |  |  |  |  |  |  |  |  |  |  | 
KRRWPWWPWRLI-NH2 [Retro-omiganan Cl^−] |  | 26.66 | 16 | 32 | 16 | 16 | 64 | 16 | 36.57 | 32 | 32 | 8 | 32 | 16 | 8.93 | 64 | 16 | 8 | 16 | 16
